Measurements taken from PubChem BioAssay AID2060887 (Molecular Pharmacology Branch, DTP, NCI, 2025).
Several values for one entry are separate records, joined by “and”; a condition that tells them apart may be missing. Equal entries are not always repeated.

Tested on: 782815-120-R-J1-PDC complex spheroid viability
Assay: Anticancer human tumor 782815-120-R-J1-PDC patient-derived colon adenocarcinoma cell line growth inhibition [RAS]
Conditions: for viability, T/C: stronger effect = lower value; active = viability on the fitted dose curve at most 10% of control; inactive = the rest
Outline: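 Agents were tested in combination matrices in half-log decrements from a top concentration at or near clinical Cmax (10 microM if undetermined). Targets were multi-cell spheroids of tumour lines plus HUVEC and MSC stromal cells.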
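Also: spheroids exposed to compounds for 7 days before reading.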
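For viability, T/C in this document: 100% = DMSO vehicle control viability.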

CCc1c2c(nc3ccc(O)cc13)-c1cc3c(c(=O)n1C2)COC(=O)[C@]3(O)CC + CCn1c(-c2cc(N3CCN(C)CC3)cnc2C(C)OC)c2c3cc(ccc31)-c1csc(n1)CC(NC(=O)C1CC1C)C(=O)N1CCCC(N1)C(=O)OCC(C)(C)C2
< 0.949 nM: IC50 (curve of first compound, second compound 0.00949 µM) | IC50 (curve of first compound, second compound 0.03 µM) | IC50 (curve of first compound, second compound 0.0949 µM) | IC50 (curve of first compound, second compound 0.3 µM)
1.92 nM: IC50 (curve of first compound, second compound 0.003 µM)
inactive: viability, T/C (second compound 0.000949 µM, first compound 0.000949 µM) 70.4% | viability, T/C (second compound 0.000949 µM, first compound 0.003 µM) 45.9% | viability, T/C (second compound 0.000949 µM, first compound 0.00949 µM) 19.8% | viability, T/C (second compound 0.003 µM, first compound 0.000949 µM) 66.6% | viability, T/C (second compound 0.003 µM, first compound 0.003 µM) 38.8% | viability, T/C (second compound 0.003 µM, first compound 0.00949 µM) 23.4% | viability, T/C (second compound 0.003 µM, first compound 0.03 µM) 12.9% | viability, T/C (second compound 0.00949 µM, first compound 0.000949 µM) 32.7% | viability, T/C (second compound 0.00949 µM, first compound 0.003 µM) 28.5% | viability, T/C (second compound 0.00949 µM, first compound 0.00949 µM) 15.4% | viability, T/C (second compound 0.00949 µM, first compound 0.03 µM) 12.7% | viability, T/C (second compound 0.03 µM, first compound 0.000949 µM) 19.6% | viability, T/C (second compound 0.03 µM, first compound 0.003 µM) 16.7% | viability, T/C (second compound 0.03 µM, first compound 0.00949 µM) 11.7% | viability, T/C (second compound 0.0949 µM, first compound 0.000949 µM) 15.5% | viability, T/C (second compound 0.0949 µM, first compound 0.003 µM) 16.3% | viability, T/C (second compound 0.0949 µM, first compound 0.00949 µM) 11.7% | viability, T/C (second compound 0.3 µM, first compound 0.000949 µM) 14.3% | viability, T/C (second compound 0.3 µM, first compound 0.003 µM) 13.6% | viability, T/C (second compound 0.3 µM, first compound 0.00949 µM) 10.7%
2.4 nM: IC50 (curve of first compound, second compound 0.000949 µM)
active: viability, T/C (second compound 0.000949 µM, first compound 0.03 µM) 10.8% | viability, T/C (second compound 0.000949 µM, first compound 0.0949 µM) 3.9% | viability, T/C (second compound 0.000949 µM, first compound 0.3 µM) 1.57% | viability, T/C (second compound 0.003 µM, first compound 0.0949 µM) 4.38% | viability, T/C (second compound 0.003 µM, first compound 0.3 µM) 1.89% | viability, T/C (second compound 0.00949 µM, first compound 0.0949 µM) 7.05% | viability, T/C (second compound 0.00949 µM, first compound 0.3 µM) 1.84% | viability, T/C (second compound 0.03 µM, first compound 0.03 µM) 10.4% | viability, T/C (second compound 0.03 µM, first compound 0.0949 µM) 6.53% | viability, T/C (second compound 0.03 µM, first compound 0.3 µM) 1.73% | viability, T/C (second compound 0.0949 µM, first compound 0.03 µM) 10.5% | viability, T/C (second compound 0.0949 µM, first compound 0.0949 µM) 7.5% | viability, T/C (second compound 0.0949 µM, first compound 0.3 µM) 0.75% | viability, T/C (second compound 0.3 µM, first compound 0.03 µM) 13.1% | viability, T/C (second compound 0.3 µM, first compound 0.0949 µM) 7.92% | viability, T/C (second compound 0.3 µM, first compound 0.3 µM) 1.5%

NC1c2ccccc2OC12CCN(c1cnc3c(N4CCCc5ncccc54)n[nH]c3n1)CC2 (stereo unspecified)
inactive: viability, T/C (compound 0.0316 µM) 99% [middle of 4 runs] | viability, T/C (compound 0.1 µM) 96.6% [middle of 4 runs] | viability, T/C (compound 0.316 µM) 104% [middle of 4 runs] | viability, T/C (compound 1 µM) 95% [middle of 4 runs] | viability, T/C (compound 3.16 µM) 102% and 94.6% and 99.8% (2×) | viability, T/C (compound 10 µM) 86.9% [middle of 4 runs]
> 10000 nM: IC50 (curve of compound)

CC(=O)OC12COC1CC(O)C1(C)C(=O)C(O)C3=C(C)C(OC(=O)C(O)C(NC(=O)OC(C)(C)C)c4ccccc4)CC(O)(C(OC(=O)c4ccccc4)C21)C3(C)C (stereo unspecified) + C#Cc1c(F)ccc2cc(O)cc(-c3ncc4c(N5CC6CCC(C5)N6)nc(OCC56CCCN5CC(F)C6)nc4c3F)c12
< 31.6 nM: IC50 (curve of first compound, second compound 0.0316 µM) | IC50 (curve of first compound, second compound 0.1 µM) | IC50 (curve of first compound, second compound 0.316 µM) | IC50 (curve of first compound, second compound 1 µM) | IC50 (curve of first compound, second compound 3.16 µM) | IC50 (curve of first compound, second compound 10 µM)
inactive: viability, T/C (second compound 0.0316 µM, first compound 0.0316 µM) 34.4% | viability, T/C (second compound 0.0316 µM, first compound 0.1 µM) 32.9% | viability, T/C (second compound 0.0316 µM, first compound 0.316 µM) 30.1% | viability, T/C (second compound 0.0316 µM, first compound 1 µM) 24.4% | viability, T/C (second compound 0.0316 µM, first compound 3.16 µM) 30.8% | viability, T/C (second compound 0.0316 µM, first compound 10 µM) 34.9% | viability, T/C (second compound 0.1 µM, first compound 0.0316 µM) 39.7% | viability, T/C (second compound 0.1 µM, first compound 0.1 µM) 34.5% | viability, T/C (second compound 0.1 µM, first compound 0.316 µM) 29.2% | viability, T/C (second compound 0.1 µM, first compound 1 µM) 21.6% | viability, T/C (second compound 0.1 µM, first compound 3.16 µM) 32.2% | viability, T/C (second compound 0.1 µM, first compound 10 µM) 31% | viability, T/C (second compound 0.316 µM, first compound 0.0316 µM) 38.8% | viability, T/C (second compound 0.316 µM, first compound 0.1 µM) 33.4% | viability, T/C (second compound 0.316 µM, first compound 0.316 µM) 25.9% | viability, T/C (second compound 0.316 µM, first compound 1 µM) 28.6% | viability, T/C (second compound 0.316 µM, first compound 3.16 µM) 31.9% | viability, T/C (second compound 0.316 µM, first compound 10 µM) 29.5% | viability, T/C (second compound 1 µM, first compound 0.0316 µM) 36.5% | viability, T/C (second compound 1 µM, first compound 0.1 µM) 32.3% | viability, T/C (second compound 1 µM, first compound 0.316 µM) 30.5% | viability, T/C (second compound 1 µM, first compound 1 µM) 27.2% | viability, T/C (second compound 1 µM, first compound 3.16 µM) 33.7% | viability, T/C (second compound 1 µM, first compound 10 µM) 33.4% | viability, T/C (second compound 3.16 µM, first compound 0.0316 µM) 35.4% | viability, T/C (second compound 3.16 µM, first compound 0.1 µM) 34.4% | viability, T/C (second compound 3.16 µM, first compound 0.316 µM) 35.5% | viability, T/C (second compound 3.16 µM, first compound 1 µM) 27.5% | viability, T/C (second compound 3.16 µM, first compound 3.16 µM) 28.3% | viability, T/C (second compound 3.16 µM, first compound 10 µM) 34.2% | viability, T/C (second compound 10 µM, first compound 0.0316 µM) 35.7% | viability, T/C (second compound 10 µM, first compound 0.1 µM) 29.2% | viability, T/C (second compound 10 µM, first compound 0.316 µM) 26.8% | viability, T/C (second compound 10 µM, first compound 1 µM) 36% | viability, T/C (second compound 10 µM, first compound 3.16 µM) 29.9% | viability, T/C (second compound 10 µM, first compound 10 µM) 32.8%
